Assay results from patent US7393865B2, “Sleep inducing compounds and methods relating thereto” (Neurocrine Biosciences, Inc., priority 2004, dated 2008).

target: T1, human H1 receptor (Homo sapiens, UniProt P35367); test: Human histamine H1 receptor binding assay; conditions: competition with 1.5 nM [pyridinyl-5-3H] Pyrilamine, crude membranes of CHO cells transfected with human H1 receptor; Ki from IC50 by Cheng-Prusoff
T1 construct: expressed in transfected cells; host or cells: CHO cells (crude membranes)
T1 sequence (P35367 whole entry): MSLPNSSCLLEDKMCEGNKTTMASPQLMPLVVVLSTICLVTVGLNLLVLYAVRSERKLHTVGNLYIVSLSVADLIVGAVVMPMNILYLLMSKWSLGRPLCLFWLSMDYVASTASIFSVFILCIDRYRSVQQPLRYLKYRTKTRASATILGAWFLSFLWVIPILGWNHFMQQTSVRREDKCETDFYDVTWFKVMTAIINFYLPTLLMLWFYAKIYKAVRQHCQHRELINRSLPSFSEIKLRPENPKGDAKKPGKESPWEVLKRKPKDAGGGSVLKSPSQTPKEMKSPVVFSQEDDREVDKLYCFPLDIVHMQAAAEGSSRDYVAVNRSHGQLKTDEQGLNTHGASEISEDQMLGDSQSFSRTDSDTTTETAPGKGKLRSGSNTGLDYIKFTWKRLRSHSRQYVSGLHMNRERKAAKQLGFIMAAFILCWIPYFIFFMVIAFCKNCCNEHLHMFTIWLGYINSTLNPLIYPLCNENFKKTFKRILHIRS
Procedure: Compounds of the present invention may be evaluated for binding to the histamine H1 receptor by a standard binding assay. […] Pyrilamine (˜30 Ci/mmol, Amersham TRK608) in the presence of varying concentrations of competing ligand. Non-specific binding is determined in the presence of excess (1 μM) doxepin. Bound and free ligand are separated by rapid vacuum filtration using a Packard 96-well cell harvester onto UniFilter GF/C filter plates (PerkinElmer) that has been pretreated with 1% polyethyleneimine. The filter plates are then washed with 600 μl phosphate buffered saline containing 0.01% (v/v) Triton-X100. Bound radioligand is determined by scintillation counting using a TopCount-NXT (Packard). Binding data is analyzed by nonlinear, least-squares curve fitting algorithms using GraphPad Prism (GraphPad Software, Inc. San Diego, Calif.) or ActivityBase (IDBS, Guildford, Surrey, UK).

Ki, ≤ 1000 nM:
C[C@H](c1cccnc1F)c1c(CCN(C)C)sc2ccccc12 [Compound 15-8, Dimethyl-(2-{3-[(R)-1-(2-fluoro-pyridin-3-yl)-ethyl]-benzo[b]thiophen-2-yl}-ethyl)-amine]
C[C@@H](c1cccnc1F)c1c(CCN(C)C)sc2ccccc12 [Compound 15-9, Dimethyl-(2-{3-[(S)-1-(2-fluoro-pyridin-3-yl)-ethyl]-benzo[b]thiophen-2-yl}-ethyl)-amine]
CC(c1cscn1)c1c(CCN(C)C)sc2ccccc12 (centres unmarked) [Compound 16-2, Dimethyl-{2-[3-(1-thiazol-4-yl-ethyl)-benzo[b]thiophen-2-yl]-ethyl}-amine]
C[C@@H](c1cscn1)c1c(CCN(C)C)sc2ccccc12 [Compound 16-3, Dimethyl-{2-[3-((R)-1-thiazol-4-yl-ethyl)-benzo[b]thiophen-2-yl]-ethyl}-amine]
CC(c1cncs1)c1c(CCN(C)C)sc2ccccc12 (centres unmarked) [Compound 17-2, Dimethyl-{2-[3-(1-thiazol-5-yl-ethyl)-benzo[b]thiophen-2-yl]-ethyl}-amine]
C[C@@H](c1cncs1)c1c(CCN(C)C)sc2ccccc12 [Compound 17-3, Dimethyl-{2-[3-((R)-1-thiazol-5-yl-ethyl)-benzo[b]thiophen-2-yl]-ethyl}-amine]
C[C@H](c1cncs1)c1c(CCN(C)C)sc2ccccc12 [Compound 17-4, Dimethyl-{2-[3-((S)-1-thiazol-5-yl-ethyl)-benzo[b]thiophen-2-yl]-ethyl}-amine]
CC(c1ncccc1F)c1c(CCN(C)C)sc2ccccc12 (centres unmarked) [Compound 18-3, (2-{3-[1-(3-Fluoro-pyridin-2-yl)-ethyl]-benzo[b]thiophen-2-yl}-ethyl)-dimethyl-amine]
C[C@@H](c1ncccc1F)c1c(CCN(C)C)sc2ccccc12 [Compound 18-4, (2-{3-[(R)-1-(3-Fluoro-pyridin-2-yl)-ethyl]-benzo[b]thiophen-2-yl}-ethyl)-dimethyl-amine]
C[C@H](c1ncccc1F)c1c(CCN(C)C)sc2ccccc12 [Compound 18-5, (2-{3-[(S)-1-(3-Fluoro-pyridin-2-yl)-ethyl]-benzo[b]thiophen-2-yl}-ethyl)-dimethyl-amine]
CC(c1cscn1)c1c(CCN2CCCC2)sc2ccccc12 (centres unmarked) [Compound 19-4, 4-{1-[2-(2-Pyrrolidin-1-yl-ethyl)-benzo[b]thiophen-3-yl]-ethyl}-thiazole]
C[C@@H](c1cscn1)c1c(CCN2CCCC2)sc2ccccc12 [Compound 19-5, 4-{(R)-1-[2-(2-Pyrrolidin-1-yl-ethyl)-benzo[b]thiophen-3-yl]-ethyl}-thiazole]
C[C@H](c1cscn1)c1c(CCN2CCCC2)sc2ccccc12 [Compound 19-6, 4-{(S)-1-[2-(2-Pyrrolidin-1-yl-ethyl)-benzo[b]thiophen-3-yl]-ethyl}-thiazole]
CC(c1ccccn1)c1c(CCN2CCCC2)sc2ccccc12 (centres unmarked) [Compound 20-1, 2-{1-[2-(2-Pyrrolidin-1-yl-ethyl)-benzo[b]thiophen-3-yl]-ethyl}-pyridine]
C[C@H](c1ccccn1)c1c(CCN2CCCC2)sc2ccccc12 [Compound 20-2, 2-{(S)-1-[2-(2-Pyrrolidin-1-yl-ethyl)-benzo[b]thiophen-3-yl]-ethyl}-pyridine]
C[C@@H](c1ccccn1)c1c(CCN2CCCC2)sc2ccccc12 [Compound 20-3, 2-{(R)-1-[2-(2-Pyrrolidin-1-yl-ethyl)-benzo[b]thiophen-3-yl]-ethyl}-pyridine]
CC(c1ccccn1)c1c(CCN2CCC(O)C2)sc2ccccc12 (centres unmarked) [Compound 20-6, 1-{2-[3-(1-Pyridin-2-yl-ethyl)-benzo[b]thiophen-2-yl]-ethyl}-pyrrolidin-3-ol]
CC(c1ccccn1)c1c(CCN2CCC2)sc2ccccc12 (centres unmarked) [Compound 20-7, 2-{1-[2-(2-Azetidin-1-yl-ethyl)-benzo[b]thiophen-3-yl]-ethyl}-pyridine]
C[C@@H](c1ccccn1)c1c(CCN2CCC2)sc2ccccc12 [Compound 20-8, 2-{(R)-1-[2-(2-Azetidin-1-yl-ethyl)-benzo[b]thiophen-3-yl]-ethyl}-pyridine]
C[C@H](c1ccccn1)c1c(CCN2CCC2)sc2ccccc12 [Compound 20-9, 2-{(S)-1-[2-(2-Azetidin-1-yl-ethyl)-benzo[b]thiophen-3-yl]-ethyl}-pyridine]
CNCCc1sc2ccccc2c1[C@@H](C)c1ccccn1 [Compound 21-1, Methyl-{2-[3-((R)-1-pyridin-2-yl-ethyl)-benzo[b]thiophen-2-yl]-ethyl}-amine]
CN(C)CCc1sc2ccccc2c1Cc1cccnc1F [Compound 24-2, {2-[3-(2-Fluoro-pyridin-3-ylmethyl)-benzo[b]thiophen-2-yl]-ethyl}-dimethyl-amine]
CC(c1cccnc1Cl)c1c(CCN(C)C)sc2ccccc12 (centres unmarked) [Compound 25-4, (2-{3-[1-(2-Chloro-pyridin-3-yl)-ethyl]-benzo[b]thiophen-2-yl}-ethyl)-dimethyl-amine]
